Assay results from PubChem BioAssay (NCI).
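In this assay, cells in 96-well plates receive the compound at five concentrations for 48 hours. Endpoints are linearly interpolated between the surrounding concentrations. At the TGI there is no net growth.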

Assays:
Experiment in all cases: NCI-60 cell line screen, 48 h
[1] = test system: EKVX NSCLC
[2] = test system: SNB-78 CNS
[3] = test system: MOLT-4 leukemia
[4] = test system: SNB-75 CNS
[5] = test system: A498 renal
[6] = test system: HCC-2998 colon
[7] = test system: OVCAR-4 ovarian
[8] = test system: SN12C renal
[9] = test system: NCI-H226 lung
[10] = test system: OVCAR-8 ovarian
[11] = test system: DLD-1 colon
[12] = test system: 786-0 renal
[13] = test system: TK-10 renal
[14] = test system: KM20L2 colon
[15] = test system: RXF-631 renal
[16] = test system: MALME-3M melanoma
[17] = test system: NCI-H460 lung
[18] = test system: A549 NSCLC
[19] = test system: NCI-H23 lung
[20] = test system: K-562 leukemia
[21] = test system: HCT-116 colon
[22] = test system: LOX IMVI melanoma
[23] = test system: COLO 205 colon
[24] = test system: LXFL 529 NSCLC
[25] = test system: DMS 114 small cell lung
[26] = test system: HL-60(TB) leukemia
[27] = test system: M14 melanoma
[28] = test system: OVCAR-5 ovarian
[29] = test system: SW-620 colon
[30] = test system: ACHN renal
[31] = test system: UO-31 renal
[32] = test system: U251 CNS
[33] = test system: RPMI-8226 leukemia
[34] = test system: SF-539 CNS
[35] = test system: CAKI-1 renal
[36] = test system: IGROV1 ovarian
[37] = test system: SK-MEL-28 melanoma
[38] = test system: HCT-15 colon
[39] = test system: HOP-62 NSCLC
[40] = test system: CCRF-CEM leukemia
[41] = test system: RXF 393 renal
[42] = test system: SK-MEL-2 melanoma
[43] = test system: SNB-19 CNS
[44] = test system: M19-MEL melanoma
[45] = test system: SK-OV-3 ovarian
[46] = test system: XF 498 CNS
[47] = test system: UACC-62 melanoma
[48] = test system: SF-268 CNS
[49] = test system: HOP-92 NSCLC
[50] = test system: NCI-H522 lung
[51] = test system: KM12 colon
[52] = test system: UACC-257 melanoma
[53] = test system: OVCAR-3 ovarian
[54] = test system: DMS 273 small cell lung
[55] = test system: HT29 colon
[56] = test system: SK-MEL-5 melanoma
[57] = test system: SF-295 CNS

Work on `COC(=O)C(CC(=O)Nc1ccc(C)cc1)C(=O)C(=O)Nc1c(C(C)C)cccc1C(C)C` (stereo unspecified) yielded a TGI [1] greater than 100000 nM, a TGI [2] greater than 100000 nM and a TGI [3] greater than 100000 nM. The TGI [4] was greater than 100000 nM, the TGI [5] was greater than 100000 nM and the TGI [6] was greater than 100000 nM. The TGI [7] was greater than 100000 nM, the TGI [8] was greater than 100000 nM and the TGI [9] was greater than 100000 nM. It also gave a TGI [10] greater than 100000 nM, a TGI [11] greater than 100000 nM and a TGI [12] greater than 100000 nM. For the same compound, the TGI [13] was greater than 100000 nM, the TGI [14] was greater than 100000 nM and the TGI [15] was greater than 100000 nM. The TGI [16] was greater than 100000 nM, the TGI [17] was greater than 100000 nM and the TGI [18] was greater than 100000 nM. The TGI [19] was greater than 100000 nM, the TGI [20] was greater than 100000 nM and the TGI [21] was greater than 100000 nM. It also gave a TGI [22] greater than 100000 nM, a TGI [23] greater than 100000 nM and a TGI [24] greater than 100000 nM. The TGI [25] was greater than 100000 nM, the TGI [26] was greater than 100000 nM and the TGI [27] was greater than 100000 nM. For the same compound, the TGI [28] was greater than 100000 nM, the TGI [29] was greater than 100000 nM and the TGI [30] was greater than 100000 nM. For the same compound, the TGI [31] was greater than 100000 nM, the TGI [32] was greater than 100000 nM and the TGI [33] was greater than 100000 nM. It also gave a TGI [34] greater than 100000 nM, a TGI [35] greater than 100000 nM and a TGI [36] greater than 100000 nM. For the same compound, the TGI [37] was greater than 100000 nM, the TGI [38] was greater than 100000 nM and the TGI [39] was greater than 100000 nM. For the same compound, the TGI [40] was greater than 100000 nM, the TGI [41] was greater than 100000 nM and the TGI [42] was greater than 100000 nM. For the same compound, the TGI [43] was greater than 100000 nM, the TGI [44] was greater than 100000 nM and the TGI [45] was greater than 100000 nM. For the same compound, the TGI [46] was greater than 100000 nM, the TGI [47] was greater than 100000 nM and the TGI [48] was greater than 100000 nM. For the same compound, the TGI [49] was greater than 100000 nM and the TGI [50] was greater than 100000 nM.

`CCN(CC)C1CC(O[C@H]2C[C@](O)(C(=O)CO)Cc3c(O)c4c(c(O)c32)C(=O)c2c(OC)cccc2C4=O)OC(C)C1O` (stereo partly specified) gave a TGI [1] of 336 nM, a TGI [2] of 785 nM and a TGI [3] of 1170 nM. It also gave a TGI [4] of 184 nM, a TGI [51] of 457 nM and a TGI [5] of 79.8 nM. The TGI [6] was 290 nM, the TGI [7] was 255 nM and the TGI [8] was 1250 nM. For the same compound, the TGI [9] was 44 nM, the TGI [10] was 565 nM and the TGI [11] was 260 nM. The TGI [12] was 541 nM, the TGI [52] was 305 nM and the TGI [13] was 2570 nM. For the same compound, the TGI [14] was 416 nM, the TGI [15] was 11900 nM and the TGI [16] was 166 nM. The TGI [17] was 146 nM, the TGI [18] was 394 nM and the TGI [19] was 154 nM. It also gave a TGI [20] of 947 nM, a TGI [21] of 1030 nM and a TGI [22] of 439 nM. It also gave a TGI [23] of 193 nM, a TGI [24] of 1100 nM and a TGI [25] of 274 nM. The TGI [26] was 533 nM, the TGI [53] was 770 nM and the TGI [27] was 310 nM. For the same compound, the TGI [28] was 561 nM, the TGI [54] was 161 nM and the TGI [55] was 1640 nM. For the same compound, the TGI [29] was 328 nM, the TGI [30] was 208 nM and the TGI [31] was 264 nM. The TGI [32] was 1190 nM, the TGI [33] was 310 nM and the TGI [34] was 204 nM. It also gave a TGI [36] of 4660 nM, a TGI [56] of 124 nM and a TGI [37] of 216 nM. It also gave a TGI [38] of 3540 nM, a TGI [39] of 455 nM and a TGI [40] of 1410 nM. The TGI [41] was 123 nM, the TGI [42] was 193 nM and the TGI [43] was 754 nM. For the same compound, the TGI [44] was 167 nM, the TGI [45] was 9620 nM and the TGI [57] was 468 nM. It also gave a TGI [46] of 223 nM, a TGI [47] of 96.8 nM and a TGI [48] of 314 nM. For the same compound, the TGI [49] was 268 nM and the TGI [50] was 121 nM.
